Experimental data: patent publication US20060128792A1, “Deguelin as a chemopreventive agent for lung cancer” (priority 2002, published 2006)
“And” between values parts separate entries of the source, which are not always exact repeats. Equal entries are not always repeated.

Columns and labels:
Experiment in all cases: MTT assay, growth inhibition by deguelin or deguelin derivatives
Type in all cases: cell-based
H1299 = settings: 3 days
H596 = settings: 3 days; for % control: control = 1
H460 = settings: 3 days
H358 = settings: 3 days
A549 = settings: 3 days; for % control: control = 1
H322 = settings: 3 days

C=C(C)[C@H]1Cc2c(ccc3c(=O)c4c(oc23)COc2cc(OC)c(OC)cc2-4)O1 [6a,2a-dehydrorotenone]
% control (H1299; H1299, 0.01 μM): 0.99%
MTT assay reading, Average (H1299; H1299, 0.01 μM): 1.5514
MTT assay reading, individual replicate (H1299; H1299, 0.01 μM): 1.562 and 1.561 and 1.559 and 1.63 and 1.515 and 1.517 and 1.516
% control (H1299; H1299, 0.1 μM): 0.89%
MTT assay reading, Average (H1299; H1299, 0.1 μM): 1.3907
MTT assay reading, individual replicate (H1299; H1299, 0.1 μM): 1.39 and 1.308 and 1.385 and 1.539 and 1.281 and 1.351 and 1.481
% control (H1299; H1299, 0.5 μM): 0.95%
MTT assay reading, Average (H1299; H1299, 0.5 μM): 1.4937
MTT assay reading, individual replicate (H1299; H1299, 0.5 μM): 1.544 and 1.561 and 1.338 and 1.502 and 1.595 and 1.413 and 1.503
% control (H1299; H1299, 1 μM): 0.89%
MTT assay reading, Average (H1299; H1299, 1 μM): 1.3961
MTT assay reading, individual replicate (H1299; H1299, 1 μM): 1.452 and 1.321 and 1.233 and 1.57 and 1.421 and 1.33 and 1.446
MTT assay reading, Average (H596; H596, 0.01 μM): 1.6089
MTT assay reading, individual replicate (H596; H596, 0.01 μM): 1.581 and 1.597 and 1.651 and 1.605 and 1.631 and 1.617 and 1.58
MTT assay reading, Average (H596; H596, 0.1 μM): 1.399
MTT assay reading, individual replicate (H596; H596, 0.1 μM): 1.347 and 1.381 and 1.333 and 1.513 and 1.417 and 1.34 and 1.462
MTT assay reading, Average (H596; H596, 0.5 μM): 1.4016
MTT assay reading, individual replicate (H596; H596, 0.5 μM): 1.343 and 1.467 and 1.312 and 1.463 and 1.351 and 1.399 and 1.476
MTT assay reading, Average (H596; H596, 1 μM): 1.3214
MTT assay reading, individual replicate (H596; H596, 1 μM): 1.234 and 1.257 and 1.341 and 1.494 and 1.326 and 1.319 and 1.279
% control (H460; H460, 0.01 μM): 0.96%
MTT assay reading, Average (H460; H460, 0.01 μM): 1.6774
MTT assay reading, individual replicate (H460; H460, 0.01 μM): 1.625 and 1.563 and 1.731 and 1.89 and 1.443 and 1.675 and 1.815
% control (H460; H460, 0.1 μM): 0.78%
MTT assay reading, Average (H460; H460, 0.1 μM): 1.3666
MTT assay reading, individual replicate (H460; H460, 0.1 μM): 1.314 (2×) and 1.333 and 1.204 and 1.501 and 1.379 and 1.521
% control (H460; H460, 0.5 μM): 0.85%
MTT assay reading, Average (H460; H460, 0.5 μM): 1.49
MTT assay reading, individual replicate (H460; H460, 0.5 μM): 1.31 and 1.421 and 1.538 and 1.504 and 1.55 and 1.534 and 1.573
% control (H460; H460, 1 μM): 0.79%
MTT assay reading, Average (H460; H460, 1 μM): 1.382
MTT assay reading, individual replicate (H460; H460, 1 μM): 1.253 and 1.353 and 1.351 and 1.347 and 1.429 and 1.319 and 1.622
MTT assay reading, Average (H358; H358, 0.01 μM): 0.8861
MTT assay reading, individual replicate (H358; H358, 0.01 μM): 0.784 and 0.734 and 0.786 and 0.686 and 0.95 and 1.192 and 1.071
MTT assay reading, Average (H358; H358, 0.1 μM): 0.7511
MTT assay reading, individual replicate (H358; H358, 0.1 μM): 0.602 and 0.652 and 0.603 and 0.672 and 0.792 and 0.778 and 1.159
MTT assay reading, Average (H358; H358, 0.5 μM): 0.6756
MTT assay reading, individual replicate (H358; H358, 0.5 μM): 0.533 and 0.604 and 0.6 and 0.736 and 0.633 and 0.734 and 0.889
MTT assay reading, Average (H358; H358, 1 μM): 0.684
MTT assay reading, individual replicate (H358; H358, 1 μM): 0.686 and 0.624 and 0.639 and 0.64 and 0.667 and 0.752 and 0.78
MTT assay reading, Average (A549; A549, 0.01 μM): 1.7067
MTT assay reading, individual replicate (A549; A549, 0.01 μM): 1.69 (2×) and 1.705 and 1.541 and 1.829 and 1.786 and 1.706
MTT assay reading, Average (A549; A549, 0.1 μM): 1.4161
MTT assay reading, individual replicate (A549; A549, 0.1 μM): 0.691 and 1.805 and 1.719 and 1.454 and 1.375 (2×) and 1.494
MTT assay reading, Average (A549; A549, 0.5 μM): 1.4871
MTT assay reading, individual replicate (A549; A549, 0.5 μM): 1.531 and 1.925 and 1.594 and 1.387 and 1.359 and 1.356 and 1.258
MTT assay reading, Average (A549; A549, 1 μM): 1.4281
MTT assay reading, individual replicate (A549; A549, 1 μM): 1.544 and 1.458 and 1.375 and 1.486 and 1.428 and 1.464 and 1.242
MTT assay reading, Average (H322; H322, 0.01 μM): 0.969
MTT assay reading, individual replicate (H322; H322, 0.01 μM): 0.795 and 0.799 and 0.893 and 0.989 and 1.014 and 1.101 and 1.192
MTT assay reading, Average (H322; H322, 0.1 μM): 0.8656
MTT assay reading, individual replicate (H322; H322, 0.1 μM): 0.865 and 0.771 and 0.799 and 0.872 and 0.866 and 0.909 and 0.977
MTT assay reading, Average (H322; H322, 0.5 μM): 0.828
MTT assay reading, individual replicate (H322; H322, 0.5 μM): 0.736 and 0.809 and 0.833 and 0.746 and 0.89 and 0.958 and 0.824
MTT assay reading, Average (H322; H322, 1 μM): 0.7213
MTT assay reading, individual replicate (H322; H322, 1 μM): 0.677 and 0.658 and 0.692 and 0.681 and 0.68 and 0.859 and 0.802

COc1cc2c(cc1OC)C1C(=O)c3ccc4c(c3OC1CO2)CC([Se]c1ccccc1)C(C)(C)O4 (centres unmarked) [Drug 12]
Average (MTT assay reading) (H1299; H1299, 0.01 μM): 0.5509
MTT assay reading, replicate well (H1299; H1299, 0.01 μM): 0.513 and 0.438 and 0.626 and 0.426 and 0.609 and 0.729 and 0.515
% control (H1299; H1299, 0.01 μM, control = 1): 0.72
Average (MTT assay reading) (H1299; H1299, 0.1 μM): 0.4999
MTT assay reading, replicate well (H1299; H1299, 0.1 μM): 0.514 and 0.55 and 0.568 and 0.409 and 0.465 and 0.466 and 0.527
% control (H1299; H1299, 0.1 μM, control = 1): 0.65
Average (MTT assay reading) (H1299; H1299, 0.5 μM): 0.628
MTT assay reading, replicate well (H1299; H1299, 0.5 μM): 0.637 and 0.549 and 0.636 and 0.614 and 0.847 and 0.655 and 0.458
% control (H1299; H1299, 0.5 μM, control = 1): 0.82
Average (MTT assay reading) (H1299; H1299, 1 μM): 0.4001
MTT assay reading, replicate well (H1299; H1299, 1 μM): 0.434 and 0.41 and 0.413 and 0.451 and 0.378 and 0.357 and 0.358
% control (H1299; H1299, 1 μM, control = 1): 0.52
Average (MTT assay reading) (H596; H596, 0.01 μM): 1.421
MTT assay reading, replicate well (H596; H596, 0.01 μM): 1.468 and 1.111 and 1.465 and 1.374 and 1.701 and 1.481 and 1.344
% control (H596; H596, 0.01 μM): 0.86
Average (MTT assay reading) (H596; H596, 0.1 μM): 1.683
MTT assay reading, replicate well (H596; H596, 0.1 μM): 1.911 and 1.663 and 1.92 and 1.666 and 1.398 and 1.603 and 1.623
% control (H596; H596, 0.1 μM): 1.01
Average (MTT assay reading) (H596; H596, 0.5 μM): 1.737
MTT assay reading, replicate well (H596; H596, 0.5 μM): 1.686 and 1.82 and 1.177 and 1.899 and 1.872 and 2.048 and 1.655
% control (H596; H596, 0.5 μM): 1.05
Average (MTT assay reading) (H596; H596, 1 μM): 1.531
MTT assay reading, replicate well (H596; H596, 1 μM): 1.143 and 1.448 and 1.604 and 1.637 and 1.497 and 1.557 and 1.828
% control (H596; H596, 1 μM): 0.92
Average (MTT assay reading) (H460; H460, 0.01 μM): 0.7451
MTT assay reading, replicate well (H460; H460, 0.01 μM): 0.763 and 0.753 and 0.691 and 0.648 and 0.765 and 0.774 and 0.822
% control (H460; H460, 0.01 μM, control = 1): 0.64
Average (MTT assay reading) (H460; H460, 0.1 μM): 0.721
MTT assay reading, replicate well (H460; H460, 0.1 μM): 0.603 and 0.593 and 0.691 and 0.781 and 0.732 and 0.815 and 0.832
% control (H460; H460, 0.1 μM, control = 1): 0.62
Average (MTT assay reading) (H460; H460, 0.5 μM): 0.7127
MTT assay reading, replicate well (H460; H460, 0.5 μM): 0.621 and 0.714 and 0.653 and 0.739 and 0.77 and 0.758 and 0.734
% control (H460; H460, 0.5 μM, control = 1): 0.61
Average (MTT assay reading) (H460; H460, 1 μM): 0.7406
MTT assay reading, replicate well (H460; H460, 1 μM): 0.709 and 0.659 and 0.698 and 0.79 and 0.717 and 0.805 and 0.806
% control (H460; H460, 1 μM, control = 1): 0.63
Average (MTT assay reading) (A549; A549, 0.01 μM): 0.6226
MTT assay reading, replicate well (A549; A549, 0.01 μM): 0.58 and 0.633 and 0.616 and 0.636 and 0.715 and 0.577 and 0.601
% control (A549; A549, 0.01 μM): 1.08
Average (MTT assay reading) (A549; A549, 0.1 μM): 0.6147
MTT assay reading, replicate well (A549; A549, 0.1 μM): 0.604 and 0.545 and 0.597 and 0.519 and 0.606 and 0.719 and 0.713
% control (A549; A549, 0.1 μM): 1.06
Average (MTT assay reading) (A549; A549, 0.5 μM): 0.5669
MTT assay reading, replicate well (A549; A549, 0.5 μM): 0.533 and 0.614 and 0.532 and 0.584 and 0.567 and 0.553 and 0.585
% control (A549; A549, 0.5 μM): 0.98
Average (MTT assay reading) (A549; A549, 1 μM): 0.5701
MTT assay reading, replicate well (A549; A549, 1 μM): 0.534 and 0.536 and 0.557 and 0.571 and 0.586 (2×) and 0.621
% control (A549; A549, 1 μM): 0.99
